Source: patent publication US20230146593A1, “METHOD FOR TREATMENT AND PROPHYLAXIS OF CRS IN PATIENTS COMPRISING A COMBINATION OF BISPECIFIC ANTIBODIES BINDING TO CDS X CANCER CELL AND TNF ALPHA OR IL-6 INHIBITOR” (AMGEN INC., priority 2020, published 2023)

Columns and labels:
[1] = tested on: Adult patients with R/R AML (CRS); conditions: human, in vivo
TNF = TNF levels in patients after blinatumomab in cycle 1; type: in vivo, human
[2] = tested on: VCAM-1 on endothelial cells (HUVEC); assay: Blinatumumab VCAM assay: VCAM-1 on CD31+ HUVEC in co-culture with T cells and NALM-6 cells (flow cytometry); type: cell-based, human; conditions: co-culture of HUVEC, isolated T cells and NALM-6 target cells
Description: FIG. 7. VCAM-1 Expression on HUVEC in AMG 103 Co-culture Assays: VCAM-1 expression by flow cytometry. […] expression levels are expressed as Median Fluorescence Intensity (MFI). VCAM-1 expressing HUVEC are expressed as percentage of CD31+ HUVEC. Error bars indicate the standard error of the mean of duplicate measurements. Two PBMC donors were used in this experiment.
The effect of blinatumumab (AMG 103) on T cell activation and the induction of VCAM-1 on endothelial cells was analyzed in co-cultures of HUVEC, isolated T cells and CD19-expressing NALM-6 target cells. VCAM-1 expression on CD31+ HUVEC was analyzed by flow cytometry.

Compound | CRS events per patient [1] [per patient] | average duration of CRS events [1] | time to maximum TNF levels (TNF) [h] | VCAM-1 expression on CD31+ HUVEC [2]
C[C@@H]1C[C@H]2[C@@H]3CCC4=CC(=O)C=C[C@]4(C)[C@@]3(F)[C@@H](O)C[C@]2(C)[C@@]1(O)C(=O)CO [dexamethasone] | 2.3 | (b) average duration: 58 hrs | – | –
blinatumomab | – | – | ≤ 2 | up-regulated
